Measurements: article PMC11220827 (Frontiers in Pharmacology, 2024)
Read-outs that look alike come from different tables or passages of the source.

Tests used:
Estrogen pathway = test system: Estrogen pathway; parameters: method as in ToxCast; conditions: ref ToxCast, cited from earlier work; as to Estrogen pathway: Cell Proliferation, Call: key: Pos = positive result; Neg = negative result; Inc = uncertain/inconclusive result; as to Estrogen pathway: Dimerization, Call: key: Pos = positive result; Neg = negative result; Inc = uncertain/inconclusive result
Aromatase = test system: Aromatase; parameters: method as in ToxCast; conditions: ref ToxCast; cited from earlier work; also: key: Pos = positive result; Neg = negative result; Inc = uncertain/inconclusive result
Adenosine A1 (h) = biological target: T1, Adenosine A1 (h) (Homo sapiens, UniProt P30542); assay: Pharmacology profiling: Adenosine A1 (h) (antagonist RL); assay type: binding; conditions: for inhibition at 10 µM: read-out: Adenosine A1 (h) (antagonist RL): % inhibition @10 µM
T1 sequence (P30542 1-326): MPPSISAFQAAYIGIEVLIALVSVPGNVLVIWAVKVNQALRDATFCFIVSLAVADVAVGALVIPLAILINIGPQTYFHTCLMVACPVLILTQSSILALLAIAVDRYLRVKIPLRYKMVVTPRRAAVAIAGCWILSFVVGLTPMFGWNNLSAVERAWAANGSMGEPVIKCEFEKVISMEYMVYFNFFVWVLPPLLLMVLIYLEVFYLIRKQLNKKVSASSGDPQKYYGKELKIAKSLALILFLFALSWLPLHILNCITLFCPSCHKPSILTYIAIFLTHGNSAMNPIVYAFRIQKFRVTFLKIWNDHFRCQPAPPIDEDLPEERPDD
From the text: targets. The list of targets included the original panel of 44 targets (including receptors, ion channels,
transporters and enzymes) recommended by 4 major pharmaceutical companies as significant
reasoned to link to pathological effects. Results showing an inhibition or stimulation higher than 50%
are considered to represent significant effects (i.e. a “hit”).
and 50% are indicative of weak to moderate effects and results showing an inhibition (or stimulation)
around the control level. For several targets, additional concentration effect assays were conducted to
determine the potency (IC50). The concentrations tested (in duplicate) ranged between 30 nM and 100

ER = test system: ER; parameters: method as in Opera; conditions: experimental call listed in the Opera output; ref Opera; cited from earlier work
COX2 (h) = biological target: T2, COX2 (h) (Homo sapiens, UniProt P35354); assay: Pharmacology profiling: COX2 (h); assay type: biochemical; conditions: for inhibition at 10 µM: read-out: COX2 (h): % inhibition @10 µM
T2 sequence (P35354 18-604): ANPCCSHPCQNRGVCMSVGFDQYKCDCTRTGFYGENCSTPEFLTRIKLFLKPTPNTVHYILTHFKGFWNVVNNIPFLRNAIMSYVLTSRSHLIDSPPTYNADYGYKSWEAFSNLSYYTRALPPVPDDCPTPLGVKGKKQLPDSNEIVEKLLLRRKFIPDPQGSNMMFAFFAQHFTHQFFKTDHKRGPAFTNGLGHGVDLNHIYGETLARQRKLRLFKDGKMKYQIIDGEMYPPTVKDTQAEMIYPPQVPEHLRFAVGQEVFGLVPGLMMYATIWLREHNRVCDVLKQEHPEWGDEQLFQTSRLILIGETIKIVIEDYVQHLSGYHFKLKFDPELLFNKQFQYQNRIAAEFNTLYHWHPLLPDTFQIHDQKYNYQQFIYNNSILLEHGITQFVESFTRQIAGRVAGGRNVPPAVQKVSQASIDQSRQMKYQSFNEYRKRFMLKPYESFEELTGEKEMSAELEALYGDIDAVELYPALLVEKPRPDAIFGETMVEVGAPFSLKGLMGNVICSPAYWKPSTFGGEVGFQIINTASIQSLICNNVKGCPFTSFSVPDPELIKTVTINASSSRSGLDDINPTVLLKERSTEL
From the text: Cosmetics Europe’s Systemic Toxicity Taskforce (SysTox-TF) has extended the list of targets in an in vitro screen originally described by [Bowes et al. (2012)] to assess the effects of cosmetic chemicals on target molecules. The approach was based on the knowledge that various targets of pharmacological interest have been linked to human adverse drug reactions, and that screening of these has helped the pharma industry in identifying drug candidates with acceptable human safety profiles ([Bowes et al., 2012]; [Scott et al., 2022]). The methods used by the pharma industry were adapted for use in cosmetic chemical NGRA. A final list of 83 target assays were considered suitable for cosmetic chemical safety testing (see Supplementary Materials S1.7). The targets were receptors, ion channels, transporters and enzymes identified by the pharma industry as linked to human adverse drug reactions, supplemented by additional targets that have been reasoned to be linked to systemic toxicities of chemicals in animals. Chemicals that are flagged for a target are tested in follow-up dose-response assays to establish potency of the interaction. […]. [Valentin et al., 2018]; [Dodson et al., 2021]). […].
assay’s reference compound was set to 100%. For antagonist assays, the basal signal (exposure to fixed concentration of agonist only) was set to 100%. Activity of the samples was scaled accordingly, […]
Using these graphs, lowest […]
compound activity for antagonist assays.
S1.7. Pharmacology profiling assays […]
reasoned to link to pathological effects. […]
around the control level. […]
determine the potency (IC50).
Supplementary Table S4 Pharmacology profiling assay panel. […]

MCF-7 cells = assay: Transcriptomics (TempO-Seq, BMD analysis) in MCF-7 cells; assay type: cell-based, human; conditions: for Lowest median BMD, 3 genes passing all filters / Lowest median BMD, >5 genes passing all filters / BMD relating to estrogen effects: MCF-7, 24 h; for Lowest median BMD, 3 genes passing all filters / Lowest median BMD, >5 genes passing all filters: pathway differs per chemical; for BMD relating to estrogen effects: pathway named in the cell
Method: These differed with respect to the number of genes passing all filters in each pathway (3 versus 5 genes). […] Therefore, we captured pathways which fulfilled both criteria.
HepG2 (human hepatoblastoma) , MCF-7 (human breast adenocarcinoma) cells supplied by
Public Health England European Collection of Cell Cultures (ECACC, Salisbury, UK). Differentiated
HepaRG cells (HPR116, Lot HPR116239 -TA08) were from Biopredic International (Rennes, France).
Test chemicals were prepared in DMSO as serial dilutions, resulting in concentrations in media of
biological replicates were treated with the appropriate dose of co mpound for 24 h prior to cell lysis.
Biospyder human whole genome panel version 1 (https://biospyder.com).
Gene normalization and analysis
expression values for each probe were normalized by applying DESEQ2 normalization. A pseudo-
read-count of 1.0 was added to each normalized expression value, and then the values were log2
transformed . Analyses performed included Gene and Pathway, Dose Response and Network
monotonic increasing/decreasing trend were those which confirmed to the criteria : William’s trend
Those genes were then used in categorical (pathway) analysis for the Gene Ontology (GO) terms and
REACTOME pathways. Significant dose responsive pathways were determined according to : Fisher’s

Monooxygenase = test system: Monooxygenase; parameters: method as in ToxCast; conditions: ref ToxCast, cited from earlier work; for AC50: read-out: Thyroid pathway: Monooxygenase (Not AOP), AC50; as to Thyroid pathway: Monooxygenase (Not AOP), Call: key: Pos = positive result; Neg = negative result; Inc = uncertain/inconclusive result
[1] = read-out: Estrogen pathway: Receptor binding, AC50

Method for U2-OS cells: using the U2-OS based CALUX cytotox bioassay. The cytotoxicity of each test chemical was assessed using the U2-OS based cytotoxicity CALUX bioassay. Concentrations causing >20% reduction of luminescence were considered cytotoxic.
cytotoxicity (relative induction in the cytotoxicity CALUX bioassay > 80%) were used for final
evaluation of analysis results.
induction in the cytotox CALUX bioassay > 80%) were used for final evaluation of analysis results.
All analysis results were expressed in molar (M) final in well.
For the analyses in the presence of rat liver S9, 0.03% (v/v) of PB/BNF induced rat liver
S9 mix (including NADPH and an NADPH-regenerating system) was added to the cells directly after
addition of the compounds, which remained there for the duration of the exposure period (24 h) (van

Structure (SMILES): O=c1c(-c2ccc(O)cc2)coc2cc(O)cc(O)c12 [Genistein, 5,7-DIHYDROXY-3-(4-HYDROXYPHENYL)-4-BENZOPYRONE]
- AC50 (Estrogen pathway; [1]): 10 nM
- Steroidogenesis: Aromatase, Call (Aromatase): Neg
- IC50 (Adenosine A1 (h)): 9120 nM
- inhibition at 10 µM (Adenosine A1 (h)): 53.5%
- ER agonist, Experimental (ER): Active (medium)
- ER antagonist, Experimental (ER): Active (weak)
- ER binding, Experimental (ER): Active (medium)
- IC50 (COX2 (h)): 13600 nM
- inhibition at 10 µM (COX2 (h)): 53.8%
- Lowest median BMD, 3 genes passing all filters (MCF-7 cells): 0.0065 µM
- Lowest median BMD, >5 genes passing all filters (MCF-7 cells): 0.051 µM
- BMD relating to estrogen effects (MCF-7 cells): 60.1 - estrogen 2-hydroxylase activity ↓ µM
- Cytotoxicity LOEC, +S9 (U2-OS cells; +S9 (rat liver)): >−5 Log M
- Cytotoxicity LOEC, −S9 (U2-OS cells; −S9): >−5 Log M
- Thyroid pathway: Monooxygenase (Not AOP), Call (Monooxygenase): Pos
- AC50 (Monooxygenase): 9440 nM

Structure (SMILES): O=c1c(-c2ccc(O)cc2)coc2cc(O)ccc12 [Daidzein, DAIDZEIN]
- Estrogen pathway: Cell Proliferation, Call (Estrogen pathway): Pos
- Estrogen pathway: Dimerization, Call (Estrogen pathway): Pos
- Estrogen pathway: Receptor binding, Call (Estrogen pathway): Pos
- Estrogen pathway: Reporter protein Agonist, Call (Estrogen pathway): Pos
- Estrogen pathway: Reporter protein Antagonist, Call (Estrogen pathway): Neg
- Estrogen pathway: mRNA induction, Call (Estrogen pathway): Pos
- AC50 (Estrogen pathway; read-out: Estrogen pathway: Cell Proliferation, AC50): 150 nM
- AC50 (Estrogen pathway; read-out: Estrogen pathway: Dimerization, AC50): 770 nM
- AC50 (Estrogen pathway; [1]): 170 nM
- AC50 (Estrogen pathway; read-out: Estrogen pathway: Reporter protein Agonist, AC50): 1680 nM
- AC50 (Estrogen pathway; read-out: Estrogen pathway: mRNA induction, AC50): 150 nM
- Steroidogenesis: Aromatase, Call (Aromatase): Neg
- inhibition at 10 µM (Adenosine A1 (h)): 19.9%
- ER agonist, Experimental (ER): Active (medium)
- ER binding, Experimental (ER): Active (weak)
- inhibition at 10 µM (COX2 (h)): 21.6%
- Lowest median BMD, 3 genes passing all filters (MCF-7 cells): 0.038 µM
- Lowest median BMD, >5 genes passing all filters (MCF-7 cells): 0.084 µM
- BMD relating to estrogen effects (MCF-7 cells): 21.3 - response to estrogen ↓ µM
- Lowest median BMD (BMD/NOEC, gene pathway deregulation) (MCF-7 cells; MCF-7 cells): 38 nM
- Cytotoxicity LOEC, +S9 (U2-OS cells; human, 24 h): >−5 Log M
- Cytotoxicity LOEC, −S9 (U2-OS cells; human, 24 h): >−5 Log M
- Thyroid pathway: Monooxygenase (Not AOP), Call (Monooxygenase): Pos
- AC50 (Monooxygenase): 9100 nM
